{
  "source": "patent US20030119753A1",
  "about": "“Novel ascorbic acid compounds, methods of synthesis and application use thereof” (priority 2001, published 2003)",
  "origin": "cited, not measured here",
  "settings": "relative to ascorbic acid",
  "data": [
    {"smiles": "O=C1O[C@H]([C@@H](O)CO)C(O)=C1OS(=O)(=O)O", "note": "[L-ascorbate 2-sulphate]", "values": [
      {"measurement": "more stable than ascorbic acid", "result": 20, "unit": "times"}
    ]}
  ]
}
